Assay results reported in PubChem BioAssay (NCI).
Where “and” joins values, the source holds several entries; their conditions need not be identical. Equal entries are not always repeated.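 48-hour exposure; five concentrations; linearly interpolated endpoints. GI50 marks 50% less growth. TGI marks complete inhibition of growth.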

Experiments:
Assay in all cases: inhibition of tumour cell growth, NCI panel, 48 h
IGROV1 ovarian = tested on: IGROV1 ovarian
MDA-MB-435 = tested on: MDA-MB-435
SF-295 CNS = tested on: SF-295 CNS
DU-145 prostate = tested on: DU-145 prostate
SK-OV-3 ovarian = tested on: SK-OV-3 ovarian
SR leukemia = tested on: SR leukemia
786-0 renal = tested on: 786-0 renal
SW-620 colon = tested on: SW-620 colon
BT-549 breast = tested on: BT-549 breast
NCI-H460 lung = tested on: NCI-H460 lung

Structure (SMILES) | GI50 (IGROV1 ovarian) [µM] | TGI (IGROV1 ovarian) | GI50 (MDA-MB-435) [µM] | TGI (MDA-MB-435) [µM] | GI50 (SF-295 CNS) [µM] | TGI (SF-295 CNS) | GI50 (DU-145 prostate) [µM] | TGI (DU-145 prostate) | GI50 (SK-OV-3 ovarian) [µM] | TGI (SK-OV-3 ovarian) | GI50 (SR leukemia) [µM] | TGI (SR leukemia) [µM] | GI50 (786-0 renal) [µM] | TGI (786-0 renal) | GI50 (SW-620 colon) [µM] | TGI (SW-620 colon) [µM] | GI50 (BT-549 breast) [µM] | TGI (BT-549 breast) | GI50 (NCI-H460 lung) [µM] | TGI (NCI-H460 lung)
C=C1CCC2C3(C)COC(c4ccc(NC(C)=O)cc4)OC3CCC2(C)C1C/C=C1/C(=O)OCC1O (stereo unspecified) | > 100 | > 100 µM | 8.8 | > 100 | 1.55 | 6.75 µM | > 100 | > 100 µM | > 100 | > 100 µM | 2.33 | 85.1 | > 100 | > 100 µM | 64.3 | > 100 | 1.86 | 9.35 µM | 4.71 | > 100 µM
COc1ccc(/C=C/c2c(C(=O)/C=C/c3ccc(Cl)cc3)c(C)nc3ccccc23)cc1 | 0.663 | 2.54 µM | 2.12 | 4.67 | 1.72 | 3.61 µM | 1.69 | 3.25 µM | 2.82 | 11.4 µM | 1.37 | > 100 | 1.82 | 3.4 µM | 1.85 | 6.02 | 1.83 | 3.8 µM | 2.13 | 5.61 µM
COc1ccc(N2CCN(C(=O)c3ccccc3Nc3ccnc(C(F)(F)F)c3)CC2)cc1 | 13.7 | 93.6 µM | 38 | > 100 | 40.5 | > 100 µM | > 100 | > 100 µM | > 100 | > 100 µM | 10.8 | > 100 | > 100 | > 100 µM | > 100 | > 100 | 68.5 | > 100 µM | 50.7 | > 100 µM
CC1(C)CCC[C@]23C(=O)O[C@](O)(C(=O)C4=C[C@@](C)(/C=C/CCCc5ccc6ccc7cccc8ccc5c6c78)CC[C@@]42O)[C@@H]13 | 0.175 | 0.329 µM | 0.173 | 0.323 | 0.178 | 0.336 µM | 0.179 | 0.326 µM | 0.178 | 0.324 µM | 0.292 | – | 0.182 | 0.343 µM | 0.179 | 0.379 | 0.141 | 0.282 µM | 0.18 | 0.374 µM
CN(C)c1ccc(/C=C2\C[C@H]3[C@@H]4CC=C5C[C@@H](N6CCCC6)CC[C@]5(C)[C@H]4CC[C@]3(C)[C@H]2O)cc1 | 3.92 | 2 µM and 8.53 µM | – | 5.37 | 8.18 | 2.99 µM and 23.1 µM | 13.7 | 13.7 µM and > 100 µM | 14.7 | 13 µM and > 100 µM | 3.04 | – | 1.84 | 1.29 µM and 3.73 µM | – | 3.69 | 17.4 | 9.72 µM and 53.1 µM | 2.37 | 5.08 µM and 5.52 µM
C=C(C=O)C1CC(=O)C(C(=O)OC)[C@@H]2O[C@@](C)(CC2=O)C[C@@H]2OC(=O)[C@]3(O[C@@H]23)[C@@H](C(=O)OC)C1 (stereo partly specified) | 4.56 | 48.3 µM | 14.3 | 33 | 11.2 | 28.6 µM | 28.9 | > 100 µM | 60.6 | > 100 µM | 2.63 | 7.96 | 19.3 | 51 µM | 12.2 | 47.3 | 21.7 | 55 µM | 24.4 | 70.8 µM
NC(=O)CCC(NC(=O)OCc1ccccc1)C(=O)OCC(=O)c1ccccc1 (stereo unspecified) | > 100 | > 100 µM | > 100 | > 100 | > 100 | > 100 µM | > 100 | > 100 µM | > 100 | > 100 µM | > 100 | > 100 | > 100 | > 100 µM | > 100 | > 100 | > 100 | > 100 µM | > 100 | > 100 µM
CN1/C(=C\C(I)C(I)C2=[N+](C)c3ccccc3C2(C)C)C(C)(C)c2ccccc21 (stereo unspecified) | 0.464 | 42.5 µM | 0.26 | 11.6 | 0.192 | 2.48 µM | 0.386 | > 56.7 µM | 0.247 | 1.6 µM | 0.151 | 13.8 | 0.904 | 16.2 µM | 0.333 | 17 | 0.119 | 3.17 µM | 0.205 | 10.7 µM
Cl.[Pt].[c-]1ccccc1-c1ccccn1.c1ccc(P(c2ccccc2)C([PH+](c2ccccc2)c2ccccc2)[PH+](c2ccccc2)c2ccccc2)cc1 | 2.18 | > 100 µM | 2.45 | 6.65 | 2.48 | 12.4 µM | 1.9 | 16.4 µM | 3.57 | > 100 µM | 1.21 | 28.6 | 3.2 | 14.4 µM | 2.32 | 8.31 | 2.09 | 6.82 µM | 2.29 | 10 µM
Cc1ccc(Cl)cc1Nc1nc(C(F)(F)F)ccc1C(=O)Nc1cccc(C(F)(F)F)c1 | 1.69 | 13.4 µM | 3.61 | 13.9 | 3.65 | 18.4 µM | 4.76 | 16.6 µM | 1.74 | 5.47 µM | 3.41 | 30.3 | 3.16 | 11.8 µM | 4.55 | 19.1 | 3.56 | 13.3 µM | 2.79 | 10.1 µM
Nc1ccc(-c2nc3ccc4[nH]ncc4c3c3c2CCCC3)cc1F | 0.407 | 11.2 µM | 1.38 | 5.61 | 2.85 | 11.1 µM | 1.46 | 20.2 µM | 0.367 | 2.77 µM | 1.12 | 9.1 | 1.6 | 10.3 µM | 0.907 | 7.52 | 1.28 | 7 µM | 0.959 | 8.51 µM
O=C1NC(=O)/C(=C/C=C/c2ccccc2)S1 | 12.2 | 57.5 µM | 5.46 | > 78.7 | 0.576 | 6.35 µM | 3.76 | 36.6 µM | 38.7 | > 100 µM | 0.597 | > 86.5 | 0.366 | 4.27 µM | 11.2 | > 59.1 | 2.34 | 58.1 µM | 2.83 | 13.8 µM
